According to US10261017B2, “Methods for detecting and categorizing skin sensitizers” (University of Mississippi, priority 2014, dated 2019):
Like-named read-outs stand apart in the source and are kept apart here. Marks after values point to notes of the source that are not given here.

Columns and labels:
thiol peptide [1] = experiment: Cys-DPRA (Direct Peptide Reactivity Assay), literature data; conditions: for Cys-DPRA binary classification: FN: false negative; for Cys-DPRA binary classification: FP: false positive; for Cys-DPRA binary classification: TN: true negative; for Cys-DPRA binary classification: TP: true positive
[2] = Microplate spectrophotometric method (DCYA assay), fluorescence end-point; conditions: for DCYA binary classification: FN: false negative; for DCYA binary classification: FP: false positive; for DCYA assay reactivity / classification in words: microplate spectrophotometric method; for DCYA binary classification: TN: true negative; for DCYA binary classification: TP: true positive, positive if 100-RI <95; for DCYA 100-RI: RI = reactivity index, 2 equiv. electrophile, pH 10 buffer
[3] = test system: ARE-dependent gene activity in a recombinant cell line; conditions: cited from earlier work
thiol peptide [4] = conditions: cited from earlier work; for Cys-DPRA % Pept. remain.: reported results from the literature
[5] = cited from earlier work; for LLNA EC3: reported results (Table 7); for LLNA (EC3): effective concentration, published literature (Table 1); for LLNA Classification: published literature
[6] = NMR method: depletion of electrophile signal on reaction with DCYA
From the text: The described example can be applied to pure chemicals and mixtures. The method includes the acquisition of at least one NMR spectrum, mixing an electrophile and a nucleophile to acquire an array of control spectra and an addition of catalyst to record an array of reaction spectra. It also includes the quantification of at least one signal and the comparison of the signal with a control and the classification of the reaction based on the depletion of potential sensitizer based on the quantified residual signal.
2,5-Dimethylfuran was used as internal standard. When necessary, characterization of the product(s) formed during the reaction(s) was performed by homonuclear ^1H connectivities using 2D-COSY experiments. […] Two- and three bond ^1H-^13C connectivities were determined by gradient-HMBC experiments in which the evolution period for long-range ^1H-^13C coupling constants was optimized for a ^2,3JC,H of 8 Hz. Through-space ^1H connectivities were determined using a NOESY experiment with a mixing time of 0.450 s. […] Toronto, Canada].
In a 3 mm NMR tube, 1 volume of DCYA (100) mM in CDCl3) was mixed with one volume of sensitizer (100 mM in CDCl3) to give a final concentration of 50 mM for both DCYA and the sensitizer. Control ^1H NMR spectra (reference spectra) were recorded at regular intervals of for a minimum of 5 min. […] All spectra were recorded at constant temperature. All experiments were conducted using the manufacturer's standard presaturation pulse programs and experimental conditions were chosen as explained in NMR spectroscopy section. The progress of the reaction was followed by the diminished peak areas of the resonances for the signal of interest. The spectra were phased, referenced, and integrated using NMR data elaboration software. The structural characterizations of the resulting adducts were confirmed by conducting additional 2D-NMR experiments when necessary.
Covalent reaction of DCYA with carvone is dependent on the activation of the nucleophilic group (ex. sulfhydryl group to the reactive thio-anion) under basic conditions. This reaction is strongly dependent on the nature of the nucleophile and may be modulated by careful choice of the model nucleophile and the reaction conditions.
The control spectra are used as reference spectra (FIG. 3A). All the spectra were subjected to automatic phase and baseline correction using a Bernstein polynomial fit (order 3). After these two steps, all the spectra were integrated over the areas of interest. […] Both vinylic and adduct peak areas were normalized relative to the internal standard signal peaks. […] The concentrations of both electrophile and adduct were then plotted as percentage against time (in minutes). (FIG. 5).

[7] = based on depletion of electrophile signal at 30 min
[8] = conversion of test chemical at 90 min, 1 equiv. DCYA, 0.1 equiv. DBN, CDCl3

SMILES | Cys-DPRA binary classification: FN (thiol peptide [1]) | Cys-DPRA binary classification: FP (thiol peptide [1]) | Cys-DPRA binary classification: TN (thiol peptide [1]) | Cys-DPRA binary classification: TP (thiol peptide [1]) | DCYA binary classification: FN [2] | DCYA binary classification: FP [2] | DCYA binary classification: TN [2] | DCYA binary classification: TP [2] | KeratinoSens ™ EC3 ([3]; reported results (Table 7)) | DCYA 100-RI [2] | further results
CCCCBr [1-Bromobutane] | 0 | 1 | 0 | 0 | 0 | 0 | 1 | 0 | >2000 µM |  | DCYA adduct after long incubation ([2]; after 24 h of incubation): minor DCYA adduct; DCYA assay reactivity / classification in words [2]: non-reactive; Cys-DPRA reactivity in words (thiol peptide [4]; literature): minimal reaction
O=[N+]([O-])c1ccc(Cl)c([N+](=O)[O-])c1 [1-Chloro-2,4-dinitrobenzene] | 0 | 0 | 0 | 1 | 1 | 0 | 0 | 0 | 3.89 µM |  | Cys-DPRA % Pept. remain. (thiol peptide [4]): 0%
C=C1C(=O)O[C@@H]2/C=C(/C)[C@H](O)C[C@@H](O)C(=C)C[C@H](OC(=O)/C(C)=C\C)[C@@H]12 [3 epi-hydroxyisonobilin] |  |  |  |  |  |  |  |  |  |  | DCYA assay reactivity / classification in words [2]: highly reactive
CC=CC(=O)CC [4-Hex-3-en-one] | 0 | 0 | 0 |  | 0 | 0 | 0 | 1 |  | 2.8 | LLNA EC3 [5]: 4.2%
Nc1ccccc1 [Aniline] |  |  |  |  |  |  |  |  | >2000 µM |  | Cys-DPRA % Pept. remain. (thiol peptide [4]): 100%
O=Cc1ccccc1 [Benzaldehyde] | 0 | 1 | 0 | 0 | 0 | 0 | 1 | 0 |  | 98.1 | 
O=C(OCc1ccccc1)c1ccccc1 [Benzyl benzoate] | 0 | 0 | 1 | 0 | 0 | 0 | 1 | 0 |  | 110.6 | 
CC(C)=CCCC(C)=CC=O [Citral] | 0 | 0 | 0 | 1 | 0 | 0 | 0 | 1 | 67.36 µM | 88.8 | NMR assay reactivity / classification in words [6]: moderate/low electrophilic behavior; Conversion at t30 (depletion of electrophile signal) ([6]; 30 min, 50 mM): 29%; NMR Method conversion ([6]; 90 min, 50 mM): 29%; NMR Classification [6, 7]: Weak-moderate; LLNA (EC3) [5]: 9.2%; LLNA Classification [5]: Moderate; LLNA EC3 [5]: 9.2%; KeratinoSens ™ EC3 ([3]; published literature (Table 1)): 67.36 µM
COc1cc(/C=C/C(=O)CC(=O)/C=C/c2ccc(O)c(OC)c2)ccc1O [Curcumin] |  |  |  |  |  |  |  |  |  |  | Conversion at t30 (depletion of electrophile signal) ([6]; at 30 min, only one equivalent of DCYA, curcumin in DMSO-d6): 17^# %; Conversion at t30 (depletion of electrophile signal) ([6]; at 30 min, two equivalents of DCYA, curcumin in DMSO-d6): 43* %; NMR Method conversion ([6]; at 90 min, one equivalent of DCYA, DMSO-d6): 18%; NMR Method conversion ([6]; at 90 min, two equivalents of DCYA, DMSO-d6): 43%
CC(C)=CCCC(C)=CCCC(C)=CC=O [Farnesal] | 0 | 0 | 0 | 1 |  |  |  |  | >2000 µM |  | Cys-DPRA % Pept. remain. (thiol peptide [4]): 83.6%
CC(O)C(=O)O (stereo not shown) [Lactic acid] | 0 | 0 | 1 | 0 | 0 | 0 | 1 | 0 | >2000 µM | 100.1 | 
C=C(C)[C@@H]1CCC2=CC(=O)C[C@@H](C)[C@]2(C)C1 [Nootkatone] |  |  |  |  |  |  |  |  |  |  | Conversion at t30 (depletion of electrophile signal) ([6]; at 30 min, 1 equiv. DCYA): 0%; NMR Classification [6, 7]: Non; NMR Method conversion [6, 8]: 0%
O=C(O)C(=O)O [Oxalic acid] | 0 | 0 | 1 | 0 | 0 | 1 | 0 | 0 |  | 89.4 | 
O=C1CCO1 [Propionolactone] | 0 | 0 | 0 |  | 0 | 0 | 0 | 1 |  |  | 
Oc1cccc(O)c1 [Resorcinol] |  |  |  |  |  |  |  |  |  | 103.5 | DCYA assay reactivity / classification in words [2]: non-reactive
CC1=C(C=O)C(C)(C)CC=C1 [Safranal] | 0 | 0 | 0 | 1 | 0 | 0 | 0 | 1 |  | 82.9 | NMR assay reactivity / classification in words [6]: less reactive by NMR in the short time frame; Conversion at t30 (depletion of electrophile signal) ([6]; at 30 min, 1 equiv. DCYA): 3%; NMR Classification [6, 7]: Non; NMR Method conversion [6, 8]: 4%; LLNA (EC3) [5]: 7.5%; LLNA Classification [5]: Moderate; LLNA EC3 [5]: 7.5%; Cys-DPRA, percentage of thiol peptide depleted (thiol peptide [4]; adopted from the literature): 90.5^15%; Cys-DPRA % Pept. remain. (thiol peptide [4]): 9.5%
O=C(O)c1ccccc1O [Salicylic acid] | 0 | 0 | 1 | 0 | 0 | 0 | 1 | 0 | >2000 µM | 106.9 | 
O=C(O)C(O)C(O)C(=O)O (stereo not shown) [Tartaric acid] | 0 | 0 | 1 | 0 | 0 | 0 | 1 | 0 |  | 100.7 | 
C=C1CC(OC(=O)/C(C)=C/C)C2C(=C)C(=O)OC2/C=C(\C)C(O)CC1O (stereo not shown) [hydroxyiso-nobilin, hydroxyisonobilin] |  |  |  |  |  |  |  |  |  |  | DCYA assay reactivity / classification in words [2]: highly reactive
CC/C=C/C=O [t-2-Pentenal, trans-2-Pentenal] |  |  |  |  |  |  |  |  |  | 18.2 | NMR Classification [6]: Strong; Conversion at t30 (depletion of electrophile signal) ([6]; 30 min, 50 mM): 80%; NMR Method conversion ([6]; 90 min, 50 mM): 80%; DCYA assay reactivity / classification in words [2]: moderate reactive
